Data reported in PMC9986244, “Connection between MHC class II binding and aggregation propensity: The antigenic peptide 10 of Paracoccidioides brasiliensis as a benchmark study” (Computational and Structural Biotechnology Journal, 2023).

Each sequence was assayed against MHC-II allele DRB1*01:01 (Homo sapiens, UniProt P01903+P01911, A100R/D57E/F55L/F60I/F76Y/I96L/L162R/M171V/P40L/Q125E/R42F/V115G/Y59C). Details: not given.
Type: binding
With QTLIAIHTLAIRYAN [Peptide P10] the “Affinity for MHC-II (subfamily by experimental affinity scores)” value (shortened to “Affinity for MHC-II”) was “high affinity”.

Same assay, conditions: DRB1*01:01; SF-high / SF-low assigned from REVEAL scores
QGLKAIHTLAIRYAN [Peptide V10] was tested, and the “Affinity for MHC-II” value was “high affinity”.
QGLPAIHTLAIRYAN [Peptide V7] was tested, and the “Affinity for MHC-II” value was “low affinity”.
In the case of QMLHAIHTLAIRYAN [Peptide V16], the “Affinity for MHC-II” value is reported as “high affinity”.
With QNHHAIHTLAIRYAN [Peptide V15] the “Affinity for MHC-II” value was “low affinity”.
QPFPDIHTLAIRYAN [Peptide V3] was tested, and the “Affinity for MHC-II” value was “low affinity”.
In the case of QPFQDIHTLAIRYAN [Peptide V5], the “Affinity for MHC-II” value is reported as “low affinity”.
For QTLLDIHTLAIRYAN [Peptide V1], the “Affinity for MHC-II” value was “low affinity”.
QTLQAIHTLAIRLAN [Peptide V11] was tested, and the “Affinity for MHC-II” value was “high affinity”.
With QTLTAIHTLAIRYAN [Peptide V6] the “Affinity for MHC-II” value was “high affinity”.
With QTYHAIHTLAIRYAN [Peptide V14] the “Affinity for MHC-II” value was “high affinity”.
